This passage reports DILI_severity_class and DILI_Concern results from ChEMBL document CHEMBL4028802, “DILIrank: the largest reference drug list ranked by the risk for developing drug-induced liver injury in humans” (Drug Discov Today, 2016).

The species named for series [1] is Homo sapiens. Nature of the series: Liver toxicity in human assessed as induction of drug-induced liver injury by measuring severity class index.
For series [2], the species on record is Homo sapiens. Nature of the series: Liver toxicity in human assessed as induction of drug-induced liver injury by measuring verified drug-induced liver injury concern status.
Wherever DILI severity class is given: key of the grades not given here.

On to `CC(=O)[C@H]1CC[C@H]2[C@@H]3CCC4=CC(=O)CC[C@]4(C)[C@H]3CC[C@]12C` [PROGESTERONE], for which, in series [1], the DILI_severity_class is 2. In series [2], the DILI_Concern result is “Less-Dili-Concern”.
Consider `CC(CN1c2ccccc2Sc2ccccc21)N(C)C` (configuration not stated) [PROMETHAZINE], for which, in series [1], the DILI_severity_class came to 5. Also, the DILI_Concern entry in series [2] was “Less-Dili-Concern”.
In the same order, the values of `CCCNCC(O)COc1ccccc1C(=O)CCc1ccccc1` (configuration not stated) [PROPAFENONE] are 3 and “Less-Dili-Concern”.
`CC(C)[N+](C)(CCOC(=O)C1c2ccccc2Oc2ccccc21)C(C)C` [PROPANTHELINE]: in series [1], the DILI_severity_class is on record as 0. In addition, in series [2], the DILI_Concern entry was “No-Dili-Concern”.
`CC(C)c1cccc(C(C)C)c1O` [PROPOFOL]: the DILI_severity_class in series [1] is 3. Moreover, in series [2], the DILI_Concern entry was “Less-Dili-Concern”.
In the case of `CCC(=O)O[C@](Cc1ccccc1)(c1ccccc1)[C@H](C)CN(C)C` [PROPOXYPHENE], the DILI_severity_class in series [1] is listed as 3. In addition, the DILI_Concern entry in series [2] is recorded as “Less-Dili-Concern”.
In the same order, the values of `CC(C)NCC(O)COc1cccc2ccccc12` (configuration not stated) [PROPRANOLOL] are 3 and “Ambiguous-Dili-Concern”.
Regarding `CCCc1cc(=O)[nH]c(=S)[nH]1` [PROPYLTHIOURACIL], the DILI_severity_class in series [1] is recorded as 8. Further, the DILI_Concern entry in series [2] was “Most-Dili-Concern”.
In the case of `NC(=O)[C@@H]1CCCN1C(=O)[C@H](Cc1cnc[nH]1)NC(=O)[C@@H]1CCC(=O)N1` [PROTIRELIN], the DILI_severity_class in series [1] is given as 0. The DILI_Concern entry in series [2] is “No-Dili-Concern”.
On to `CNCCCC1c2ccccc2C=Cc2ccccc21` [PROTRIPTYLINE], for which the DILI_severity_class in series [1] is listed as 0. The DILI_Concern entry in series [2] was “No-Dili-Concern”.
The corresponding values for `CN[C@@H](C)[C@@H](O)c1ccccc1` [PSEUDOEPHEDRINE] are 0 and “No-Dili-Concern”.
In the same order, the values of `NC(=O)c1cnccn1` [PYRAZINAMIDE] are 3 and “Less-Dili-Concern”.
The corresponding values for `CN(C)C(=O)Oc1ccc[n+](C)c1` [PYRIDOSTIGMINE] are 0 and “No-Dili-Concern”.
Regarding `Cc1ncc(CO)c(CO)c1O` [PYRIDOXINE], the DILI_severity_class in series [1] amounted to 0. Further, the DILI_Concern entry in series [2] is reported as “No-Dili-Concern”.
Consider `CCc1nc(N)nc(N)c1-c1ccc(Cl)cc1` [PYRIMETHAMINE], for which, in series [1], the DILI_severity_class stood at 3. Also, in series [2], the DILI_Concern entry was “Less-Dili-Concern”.
As for `Fc1ccccc1C1=NCC(=S)N(CC(F)(F)F)c2ccc(Cl)cc21` [QUAZEPAM], the DILI_severity_class in series [1] came out at 0. In addition, the DILI_Concern entry in series [2] is on record as “No-Dili-Concern”.
The corresponding values for `OCCOCCN1CCN(C2=Nc3ccccc3Sc3ccccc32)CC1` [QUETIAPINE] are 3 and “Less-Dili-Concern”.
As for `C=C[C@H]1C[N@@]2CC[C@H]1C[C@@H]2[C@@H](O)c1ccnc2ccc(OC)cc12` [QUINIDINE], the DILI_severity_class in series [1] was 3. Besides, in series [2], the DILI_Concern result is on record as “Less-Dili-Concern”.
Regarding `C=C[C@H]1C[N@@]2CC[C@H]1C[C@H]2[C@H](O)c1ccnc2ccc(OC)cc12` [QUININE], in series [1], the DILI_severity_class turned out to be 3. Further, in series [2], the DILI_Concern entry is “Less-Dili-Concern”.
The corresponding values for `COCCCOc1ccnc(C[S+]([O-])c2nc3ccccc3[nH]2)c1C` (configuration not stated) [RABEPRAZOLE] are 3 and “Less-Dili-Concern”.
In the same order, the values of `O=C(c1ccc(OCCN2CCCCC2)cc1)c1c(-c2ccc(O)cc2)sc2cc(O)ccc12` [RALOXIFENE] are 0 and “No-Dili-Concern”.
The corresponding values for `CCC(=O)NCC[C@@H]1CCc2ccc3c(c21)CCO3` [RAMELTEON] are 0 and “No-Dili-Concern”.
In the case of `CNC(=C[N+](=O)[O-])NCCSCc1ccc(CN(C)C)o1` [RANITIDINE], the DILI_severity_class in series [1] is 5. Moreover, the DILI_Concern result in series [2] is reported as “Less-Dili-Concern”.
The corresponding values for `COc1ccccc1OCC(O)CN1CCN(CC(=O)Nc2c(C)cccc2C)CC1` (configuration not stated) [RANOLAZINE] are 0 and “No-Dili-Concern”.
The corresponding values for `C#CCN[C@@H]1CCc2ccccc21` [RASAGILINE] are 3 and “Ambiguous-Dili-Concern”.
As for `CNC(=O)c1cnn(-c2nc(N)c3ncn([C@@H]4O[C@H](CO)[C@@H](O)[C@H]4O)c3n2)c1` [REGADENOSON ANHYDROUS], the DILI_severity_class in series [1] is reported as 0. The DILI_Concern result in series [2] was “No-Dili-Concern”.
In the same order, the values of `CCOc1cc(CC(=O)N[C@@H](CC(C)C)c2ccccc2N2CCCCC2)ccc1C(=O)O` [REPAGLINIDE] are 5 and “Less-Dili-Concern”.
`COC(=O)[C@H]1[C@H]2C[C@@H]3c4[nH]c5cc(OC)ccc5c4CCN3C[C@H]2C[C@@H](OC(=O)c2cc(OC)c(OC)c(OC)c2)[C@@H]1OC` [RESERPINE]: the DILI_severity_class in series [1] is on record as 0. In addition, the DILI_Concern entry in series [2] is “No-Dili-Concern”.
In the same order, the values of `CC1=C(/C=C/C(C)=C/C=C/C(C)=C/CO)C(C)(C)CCC1` [RETINOL] are 3 and “Less-Dili-Concern”.
In the same order, the values of `NC(=O)c1ncn([C@@H]2O[C@H](CO)[C@@H](O)[C@H]2O)n1` [RIBAVIRIN] are 7 and “Ambiguous-Dili-Concern”.
Turning to `Cc1cc2nc3c(=O)[nH]c(=O)nc-3n(C[C@H](O)[C@H](O)[C@H](O)CO)c2cc1C` [RIBOFLAVIN], in series [1], the DILI_severity_class amounted to 0. Further, the DILI_Concern entry in series [2] was “No-Dili-Concern”.
With `CO[C@H]1/C=C/O[C@@]2(C)Oc3c(C)c(O)c4c(c3C2=O)C2=NC3(CCN(CC(C)C)CC3)NC2=C(NC(=O)/C(C)=C\C=C\[C@H](C)[C@H](O)[C@@H](C)[C@@H](O)[C@@H](C)[C@H](OC(C)=O)[C@@H]1C)C4=O` [RIFABUTIN], the DILI_severity_class in series [1] came to 5. The DILI_Concern result in series [2] is reported as “Less-Dili-Concern”.
In the same order, the values of `CO[C@H]1/C=C/O[C@@]2(C)Oc3c(C)c(O)c4c(O)c(c(/C=N/N5CCN(C)CC5)c(O)c4c3C2=O)NC(=O)/C(C)=C\C=C\[C@H](C)[C@H](O)[C@@H](C)[C@@H](O)[C@@H](C)[C@H](OC(C)=O)[C@@H]1C` [RIFAMPIN] are 8 and “Most-Dili-Concern”.
On to `CO[C@H]1/C=C/O[C@@]2(C)Oc3c(C)c(O)c4c(O)c(c(/C=N/N5CCN(C6CCCC6)CC5)c(O)c4c3C2=O)NC(=O)/C(C)=C\C=C\[C@H](C)[C@H](O)[C@@H](C)[C@@H](O)[C@@H](C)[C@H](OC(C)=O)[C@@H]1C` [RIFAPENTINE], for which, in series [1], the DILI_severity_class stood at 4. Besides, the DILI_Concern entry in series [2] is “Ambiguous-Dili-Concern”.
In the same order, the values of `CO[C@H]1/C=C/O[C@@]2(C)Oc3c(C)c(O)c4c(O)c(c5c(nc6cc(C)ccn65)c4c3C2=O)NC(=O)/C(C)=C\C=C\[C@H](C)[C@H](O)[C@@H](C)[C@@H](O)[C@@H](C)[C@H](OC(C)=O)[C@@H]1C` [RIFAXIMIN] are 7 and “Ambiguous-Dili-Concern”.
In the same order, the values of `Nc1nc2ccc(OC(F)(F)F)cc2s1` [RILUZOLE] are 8 and “Most-Dili-Concern”.
In the same order, the values of `CC(N)C12CC3CC(CC(C3)C1)C2` (configuration not stated) [RIMANTADINE] are 0 and “No-Dili-Concern”.
In the case of `O=P(O)(O)C(O)(Cc1cccnc1)P(=O)(O)O` [RISEDRONIC ACID], the DILI_severity_class in series [1] turned out to be 3. Besides, the DILI_Concern result in series [2] is given as “Ambiguous-Dili-Concern”.
The corresponding values for `Cc1nc2n(c(=O)c1CCN1CCC(c3noc4cc(F)ccc34)CC1)CCCC2` [RISPERIDONE] are 3 and “Less-Dili-Concern”.
Regarding `CC(C)c1nc(CN(C)C(=O)N[C@H](C(=O)N[C@@H](Cc2ccccc2)C[C@H](O)[C@H](Cc2ccccc2)NC(=O)OCc2cncs2)C(C)C)cs1` [RITONAVIR], the DILI_severity_class in series [1] is 8. Moreover, the DILI_Concern entry in series [2] was “Most-Dili-Concern”.
On to `CCN(C)C(=O)Oc1cccc([C@H](C)N(C)C)c1` [RIVASTIGMINE], for which the DILI_severity_class in series [1] amounted to 3. Further, the DILI_Concern entry in series [2] was “Less-Dili-Concern”.
Take `CN(C)CCc1c[nH]c2ccc(Cn3cncn3)cc12` [RIZATRIPTAN]: the DILI_severity_class in series [1] was determined as 0. In addition, in series [2], the DILI_Concern entry was “No-Dili-Concern”.
In the same order, the values of `CCCN(CCC)CCc1cccc2c1CC(=O)N2` [ROPINIROLE] are 4 and “Less-Dili-Concern”.
Regarding `CN(CCOc1ccc(CC2SC(=O)NC2=O)cc1)c1ccccn1` (configuration not stated) [ROSIGLITAZONE], the DILI_severity_class in series [1] is 3. In series [2], the DILI_Concern result is listed as “Less-Dili-Concern”.
In the same order, the values of `CC(C)c1nc(N(C)S(C)(=O)=O)nc(-c2ccc(F)cc2)c1/C=C/[C@@H](O)C[C@@H](O)CC(=O)O` [ROSUVASTATIN] are 3 and “Less-Dili-Concern”.
As for `[82Rb+].[Cl-]` [RUBIDIUM CHLORIDE RB 82], the DILI_severity_class in series [1] is on record as 0. Further, the DILI_Concern result in series [2] was “No-Dili-Concern”.
With `NC(=O)c1cn(Cc2c(F)cccc2F)nn1` [RUFINAMIDE], the DILI_severity_class in series [1] worked out at 3. For the same compound, the DILI_Concern entry in series [2] is “Ambiguous-Dili-Concern”.
Consider `O=C(Oc1ccccc1C(=O)O)c1ccccc1O` [SALSALATE], for which, in series [1], the DILI_severity_class is on record as 3. Moreover, the DILI_Concern result in series [2] is listed as “Less-Dili-Concern”.
The corresponding values for `N#C[C@@H]1C[C@@H]2C[C@@H]2N1C(=O)[C@@H](N)C12CC3CC(CC(O)(C3)C1)C2` [SAXAGLIPTIN ANHYDROUS] are 0 and “No-Dili-Concern”.
Turning to `CN1[C@@H]2C[C@@H](OC(=O)[C@H](CO)c3ccccc3)C[C@H]1[C@@H]1O[C@@H]12` [SCOPOLAMINE], the DILI_severity_class in series [1] was found to be 0. Moreover, the DILI_Concern result in series [2] is “No-Dili-Concern”.
In the same order, the values of `C=CCC1(C(C)CCC)C(=O)NC(=O)NC1=O` (configuration not stated) [SECOBARBITAL] are 3 and “Ambiguous-Dili-Concern”.
